Data from patent US8178570B2, “Tie-2 modulators and methods of use” (Exelixis, Inc., priority 2003, dated 2012).

These molecules were tested against Tie-2 (Homo sapiens, UniProt Q02763) (assay: Tie-2 tyrosine kinase activity: kinase-dependent ATP consumption (pEY substrate, luciferase/luciferin chemiluminescence) or 33P-ATP incorporation into substrate). Conditions: Tie-2 (human enzyme) inhibition, Table 2, class symbols A-D.
Chain of Tie-2 (Q02763 23-1124): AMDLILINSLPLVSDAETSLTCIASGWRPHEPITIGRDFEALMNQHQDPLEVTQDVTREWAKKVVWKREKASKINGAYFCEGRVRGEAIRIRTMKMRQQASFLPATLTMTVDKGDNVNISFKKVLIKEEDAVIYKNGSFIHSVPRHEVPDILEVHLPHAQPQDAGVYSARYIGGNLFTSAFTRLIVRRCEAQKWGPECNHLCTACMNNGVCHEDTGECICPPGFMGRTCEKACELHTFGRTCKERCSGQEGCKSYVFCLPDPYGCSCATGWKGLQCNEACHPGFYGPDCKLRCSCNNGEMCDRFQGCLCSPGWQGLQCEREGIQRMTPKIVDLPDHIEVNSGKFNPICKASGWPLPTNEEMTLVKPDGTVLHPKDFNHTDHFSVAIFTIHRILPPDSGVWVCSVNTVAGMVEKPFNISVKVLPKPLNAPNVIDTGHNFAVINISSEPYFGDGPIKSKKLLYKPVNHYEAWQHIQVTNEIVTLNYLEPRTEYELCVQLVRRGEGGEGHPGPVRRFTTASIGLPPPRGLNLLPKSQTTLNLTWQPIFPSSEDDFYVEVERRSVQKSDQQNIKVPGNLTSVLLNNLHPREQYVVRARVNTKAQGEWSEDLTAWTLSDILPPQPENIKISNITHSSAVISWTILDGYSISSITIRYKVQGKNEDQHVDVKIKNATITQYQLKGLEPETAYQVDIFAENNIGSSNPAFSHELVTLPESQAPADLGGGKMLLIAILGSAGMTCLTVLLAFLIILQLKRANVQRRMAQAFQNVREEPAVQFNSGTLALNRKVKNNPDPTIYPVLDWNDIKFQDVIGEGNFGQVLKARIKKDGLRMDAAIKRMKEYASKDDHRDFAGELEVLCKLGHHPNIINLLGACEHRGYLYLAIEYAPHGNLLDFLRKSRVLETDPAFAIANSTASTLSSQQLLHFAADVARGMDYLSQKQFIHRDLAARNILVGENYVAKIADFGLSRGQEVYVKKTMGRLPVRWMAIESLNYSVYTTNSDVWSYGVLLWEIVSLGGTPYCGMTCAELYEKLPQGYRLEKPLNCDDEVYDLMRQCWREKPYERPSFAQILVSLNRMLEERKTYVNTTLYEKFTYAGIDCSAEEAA
Assay type: biochemical
Procedure: One measure of inhibition is Ki. […] The Ki for a compound is determined from the IC50 based on three assumptions. First, only one compound molecule binds to the enzyme and there is no cooperativity. […] Third, the enzymatic rate of the enzyme-inhibitor complex is zero. The rate (i.e., compound concentration) data are fitted to the equation:
[formula] where V is the observed rate, Vmax, is the rate of the free enzyme, I0 is the inhibitor concentration, E0 is the enzyme concentration, and Kd is the dissociation constant of the enzyme-inhibitor complex.
Tyrosine kinase activity is determined by 1) measurement of kinase-dependent ATP consumption by in the presence of a generic substrate such as polyglutamine, tyrosine (pEY), by luciferase/luciferin-mediated chemiluminescence or; 2) incorporation of radioactive phosphate derived from ^33P-ATP into a generic substrate which has been absorbed onto the well surface of polystyrene microtiter plates. Phosphorylated substrate products are quantified by scintillation spectrometry.
Inhibition is indicated as IC50 with following key: A=IC50 less than 50 nM, B=IC50 greater than 50 nM, but less than or equal to 1000 nM, C=IC50 greater than 1000 nM, but less than 10,000 nM, and D=IC50 10,000 nM or greater. The abbreviation for human enzyme, Tie-2, is defined as tyrosine kinase with immunoglobulin and EGF repeats.
With `O=C(Cc1cccc2ccccc12)N(CCn1nc(-c2cccc(C(F)(F)F)c2)nc1-c1ccncc1)C1CCCC1` [Entry 46, N-cyclopentyl-2-naphthalen-1-yl-N-(2-{5-pyridin-4-yl-3-[3-(trifluoromethyl)phenyl]-1H-1,2,4-triazol-1-yl}ethyl)acetamide] the IC50 was ≥ 10 µM.
With `O=C(Cc1cccc2ccccc12)N(CCn1nc(-c2ccncc2)nc1-c1cc(Cl)cc(Cl)c1)C1CCCC1` [Entry 47, N-cyclopentyl-N-{2-[5-(3,5-dichlorophenyl)-3-pyridin-4-yl-1H-1,2,4-triazol-1-yl]ethyl}-2-naphthalen-1-ylacetamide] the IC50 was < 0.05 µM.
`COc1ccc(-c2nc(-c3ccncc3)nn2CCN(C(=O)Cc2ccc3ccccc3c2)C2CCCC2)cc1Cl` [Entry 48, N-(2-{5-[3-chloro-4-(methyloxy)phenyl]-3-pyridin-4-yl-1H-1,2,4-triazol-1-yl}ethyl)-N-cyclopentyl-2-naphthalen-2-ylacetamide] was tested, and the IC50 was ≥ 10 µM.
`O=C(Cc1cccc2ccccc12)N(CCc1n[nH]c(-c2ccncc2)n1)C1CCCC1` [Entry 49, N-cyclopentyl-2-naphthalen-1-yl-N-[2-(5-pyridin-4-yl-1H-1,2,4-triazol-3-yl)ethyl]acetamide] was tested, and the IC50 was < 0.05 µM.
For `O=C(Cc1cccc2ccccc12)N(CCn1nc(-c2ccncc2)nc1-c1ccccc1)C1CCCC1` [Entry 50, N-cyclopentyl-2-naphthalen-1-yl-N-[2-(5-phenyl-3-pyridin-4-yl-1H-1,2,4-triazol-1-yl)ethyl]acetamide], the IC50 was < 0.05 µM.
An IC50 of 1 to 10 µM was found for `O=C(Cc1cccc2ccccc12)N(CCn1nc(-c2ccccc2)nc1-c1ccncc1)C1CCCC1` [Entry 51, N-cyclopentyl-2-naphthalen-1-yl-N-[2-(3-phenyl-5-pyridin-4-yl-1H-1,2,4-triazol-1-yl)ethyl]acetamide] in this work.
An IC50 of 0.05 to 1 µM was found for `O=C(Cc1cccc2ccccc12)N(CCc1nc(-c2ccncc2)no1)C1CCCC1` [Entry 52, N-cyclopentyl-2-naphthalen-1-yl-N-[2-(3-pyridin-4-yl-1,2,4-oxadiazol-5-yl)ethyl]acetamide] in this work.
In the case of `COc1ccc(-c2nc(-c3ccnc(Cl)c3)nn2CCN(C(=O)Cc2cccc3ccccc23)C2CCCC2)cc1Cl` [Entry 53, N-{2-[5-[3-chloro-4-(methyloxy)phenyl]-3-(2-chloropyridin-4-yl)-1H-1,2,4-triazol-1-yl]ethyl}-N-cyclopentyl-2-naphthalen-1-ylacetamide], the IC50 is reported as ≥ 10 µM.
An IC50 of 0.05 to 1 µM was found for `COc1ccc(-c2nc(-c3ccncc3)[nH]c2CCN(C(=O)Cc2cccc3ccccc23)C2CCCC2)cc1` [Entry 54, N-cyclopentyl-N-(2-{4-[4-(methyloxy)phenyl]-2-pyridin-4-yl-1H-imidazol-5-yl}ethyl)-2-naphthalen-1-ylacetamide] in this work.
In the case of `COc1ccc(-c2nc(-c3ccncc3)n(CCN(C(=O)Nc3cccc4ccccc34)C3CCCC3)n2)cc1Cl` [Entry 55, N-(2-{3-[3-chloro-4-(methyloxy)phenyl]-5-pyridin-4-yl-1H-1,2,4-triazol-1-yl}ethyl)-N-cyclopentyl-N′-naphthalen-1-ylurea], the IC50 is reported as ≥ 10 µM.
`O=C(Cc1cccc2ccccc12)N(CCn1nc(-c2ccncc2)nc1-c1cccc(F)c1)C1CCCC1` [Entry 56, N-cyclopentyl-N-{2-[5-(3-fluorophenyl)-3-pyridin-4-yl-1H-1,2,4-triazol-1-yl]ethyl}-2-naphthalen-1-ylacetamide] was tested, and the IC50 was < 0.05 µM.
An IC50 of 1 to 10 µM was found for `O=C(Cc1cccc2ccccc12)N(CCn1nc(-c2cccc(F)c2)nc1-c1ccncc1)C1CCCC1` [Entry 57, N-cyclopentyl-N-{2-[3-(3-fluorophenyl)-5-pyridin-4-yl-1H-1,2,4-triazol-1-yl]ethyl}-2-naphthalen-1-ylacetamide] in this work.
With `O=C(Cc1cccc2ccccc12)N(CCn1nc(-c2ccncc2)nc1-c1cccc(Cl)c1)C1CCCC1` [Entry 58, N-{2-[5-(3-chlorophenyl)-3-pyridin-4-yl-1H-1,2,4-triazol-1-yl]ethyl}-N-cyclopentyl-2-naphthalen-1-ylacetamide] the IC50 was < 0.05 µM.
An IC50 of 1 to 10 µM was found for `O=C(Cc1cccc2ccccc12)N(CCn1nc(-c2cccc(Cl)c2)nc1-c1ccncc1)C1CCCC1` [Entry 59, N-{2-[3-(3-chlorophenyl)-5-pyridin-4-yl-1H-1,2,4-triazol-1-yl]ethyl}-N-cyclopentyl-2-naphthalen-1-ylacetamide] in this work.
In the case of `O=C(Cc1cccc2ccccc12)N(CCn1nc(-c2ccncc2)nc1C1CCNCC1)C1CCCC1` [Entry 60, N-cyclopentyl-2-naphthalen-1-yl-N-[2-(5-piperidin-4-yl-3-pyridin-4-yl-1H-1,2,4-triazol-1-yl)ethyl]acetamide], the IC50 is reported as < 0.05 µM.
`O=C(Cc1cccc2ccccc12)N(CCn1nc(-c2ccncc2)nc1-c1ccccc1Cl)C1CCCC1` [Entry 61, N-{2-[5-(2-chlorophenyl)-3-pyridin-4-yl-1H-1,2,4-triazol-1-yl]ethyl}-N-cyclopentyl-2-naphthalen-1-ylacetamide] was tested, and the IC50 was < 0.05 µM.
An IC50 of 1 to 10 µM was found for `O=C(Cc1cccc2ccccc12)N(CCn1nc(-c2ccccc2Cl)nc1-c1ccncc1)C1CCCC1` [Entry 62, N-{2-[3-(2-chlorophenyl)-5-pyridin-4-yl-1H-1,2,4-triazol-1-yl]ethyl}-N-cyclopentyl-2-naphthalen-1-ylacetamide] in this work.
For `O=C(Cc1cccc2ccccc12)N(CCn1nc(-c2ccncc2)nc1-c1ccc2c(c1)OCO2)C1CCCC1` [Entry 63, N-{2-[5-(1,3-benzodioxol-5-yl)-3-pyridin-4-yl-1H-1,2,4-triazol-1-yl]ethyl}-N-cyclopentyl-2-naphthalen-1-ylacetamide], the IC50 was < 0.05 µM.
An IC50 of 1 to 10 µM was found for `O=C(Cc1cccc2ccccc12)N(CCn1nc(-c2ccc3c(c2)OCO3)nc1-c1ccncc1)C1CCCC1` [Entry 64, N-{2-[3-(1,3-benzodioxol-5-yl)-5-pyridin-4-yl-1H-1,2,4-triazol-1-yl]ethyl}-N-cyclopentyl-2-naphthalen-1-ylacetamide] in this work.
For `O=C(Cc1cccc2ccccc12)N(CCn1nc(-c2ccncc2)nc1-c1cccc(Br)c1)C1CCCC1` [Entry 65, N-{2-[5-(3-bromophenyl)-3-pyridin-4-yl-1H-1,2,4-triazol-1-yl]ethyl}-N-cyclopentyl-2-naphthalen-1-ylacetamide], the IC50 was < 0.05 µM.
In the case of `O=C(Cc1cccc2ccccc12)N(CCn1nc(-c2cccc(Br)c2)nc1-c1ccncc1)C1CCCC1` [Entry 66, N-{2-[3-(3-bromophenyl)-5-pyridin-4-yl-1H-1,2,4-triazol-1-yl]ethyl}-N-cyclopentyl-2-naphthalen-1-ylacetamide], the IC50 is reported as ≥ 10 µM.
For `O=C(Cc1cccc2ccccc12)N(CCn1nc(-c2ccncc2)nc1-c1ccc(Br)cc1)C1CCCC1` [Entry 67, N-{2-[5-(4-bromophenyl)-3-pyridin-4-yl-1H-1,2,4-triazol-1-yl]ethyl}-N-cyclopentyl-2-naphthalen-1-ylacetamide], the IC50 was < 0.05 µM.
In the case of `O=C(Cc1cccc2ccccc12)N(CCn1nc(-c2ccc(Br)cc2)nc1-c1ccncc1)C1CCCC1` [Entry 68, N-{2-[3-(4-bromophenyl)-5-pyridin-4-yl-1H-1,2,4-triazol-1-yl]ethyl}-N-cyclopentyl-2-naphthalen-1-ylacetamide], the IC50 is reported as < 0.05 µM.
An IC50 of 0.05 to 1 µM was found for `Cc1nc(-c2ccnnc2)nn1CCN(C(=O)Cc1cccc2ccccc12)C1CCCC1` [Entry 69, N-cyclopentyl-N-[2-(5-methyl-3-pyridazin-4-yl-1H-1,2,4-triazol-1-yl)ethyl]-2-naphthalen-1-ylacetamide] in this work.
`Cc1ccc(-c2nc(-c3ccncc3)nn2CCN(C(=O)Cc2cccc3ccccc23)C2CCCC2)cc1` [Entry 70, N-cyclopentyl-N-{2-[5-(4-methylphenyl)-3-pyridin-4-yl-1H-1,2,4-triazol-1-yl]ethyl}-2-naphthalen-1-ylacetamide] was tested, and the IC50 was < 0.05 µM.
An IC50 of 1 to 10 µM was found for `Cc1ccc(-c2nc(-c3ccncc3)n(CCN(C(=O)Cc3cccc4ccccc34)C3CCCC3)n2)cc1` [Entry 71, N-cyclopentyl-N-{2-[3-(4-methylphenyl)-5-pyridin-4-yl-1H-1,2,4-triazol-1-yl]ethyl}-2-naphthalen-1-ylacetamide] in this work.
For `Cc1cccc(-c2nc(-c3ccncc3)nn2CCN(C(=O)Cc2cccc3ccccc23)C2CCCC2)c1` [Entry 72, N-cyclopentyl-N-{2-[5-(3-methylphenyl)-3-pyridin-4-yl-1H-1,2,4-triazol-1-yl]ethyl}-2-naphthalen-1-ylacetamide], the IC50 was < 0.05 µM.
An IC50 of 1 to 10 µM was found for `Cc1cccc(-c2nc(-c3ccncc3)n(CCN(C(=O)Cc3cccc4ccccc34)C3CCCC3)n2)c1` [Entry 73, N-cyclopentyl-N-{2-[3-(3-methylphenyl)-5-pyridin-4-yl-1H-1,2,4-triazol-1-yl]ethyl}-2-naphthalen-1-ylacetamide] in this work.
`O=C(Cc1cccc2ccccc12)N(CCn1nc(-c2ccncc2)nc1-c1ccc(Cl)cc1Cl)C1CCCC1` [Entry 74, N-cyclopentyl-N-{2-[5-(2,4-dichlorophenyl)-3-pyridin-4-yl-1H-1,2,4-triazol-1-yl]ethyl}-2-naphthalen-1-ylacetamide] was tested, and the IC50 was < 0.05 µM.
An IC50 of 1 to 10 µM was found for `O=C(Cc1cccc2ccccc12)N(CCn1nc(-c2ccc(Cl)cc2Cl)nc1-c1ccncc1)C1CCCC1` [Entry 75, N-cyclopentyl-N-{2-[3-(2,4-dichlorophenyl)-5-pyridin-4-yl-1H-1,2,4-triazol-1-yl]ethyl}-2-naphthalen-1-ylacetamide] in this work.
For `O=C(Cc1cccc2ccccc12)N(CCn1nc(-c2ccncc2)nc1-c1ccc(C(F)(F)F)cc1)C1CCCC1` [Entry 76, N-cyclopentyl-2-naphthalen-1-yl-N-(2-{3-pyridin-4-yl-5-[4-(trifluoromethyl)phenyl]-1H-1,2,4-triazol-1-yl}ethyl)acetamide], the IC50 was < 0.05 µM.
